We go through three compounds from publication PMC2707017, “Synthesis and enzymatic evaluation of 2- and 4-aminothiazole-based inhibitors of neuronal nitric oxide synthase” (Beilstein Journal of Organic Chemistry, 2009).

Details of series [1]: method as in printed. The following applies: aminothiazole ring nitrogen; stated without measurement, ref not given; cited from earlier work.
In series [2] the target is T1, rat nNOS (Rattus norvegicus, UniProt P29476). The series is described as follows: hemoglobin capture assay, nNOS.
Description: In vitro enzyme assay. The NOS isoforms used were recombinant enzymes overexpressed in E. coli. Rat nNOS [6], bovine eNOS [7], and murine macrophage iNOS [8], and were overexpressed and isolated as reported. The formation of nitric oxide was monitored using a hemoglobin capture assay as described previously. […] For the determination of inhibition of iNOS, no additional Ca^2+ or calmodulin were added. The assay was initiated by the addition of enzyme, and the absorption of UV light at 400 nm was recorded over one minute. As NO was evolved and coordinated to the hemoglobin, the absorption at 400 nm increased, producing a value for the enzyme velocity under these conditions. A value for the initial rate was obtained when no inhibitor was added (v0). The velocity of the enzyme (v) was then determined in the presence of varying concentrations of inhibitor, until a concentration of inhibitor that reduced the enzyme velocity to half its initial value (v/v0 ~ 0.5) was discovered. Concentrations of inhibitor above and below this value were tested and a graph of v/v0 versus inhibitor concentration ([I]) was plotted. Experiments were repeated at least three times and until a R^2 >0.99 was obtained. Extrapolation of this graph allowed the determination of an IC50 value. The Ki can be estimated from the IC50 if the Km for the substrate is known, using the equations below.
For the next series, the target named is murine iNOS (Mus musculus, UniProt P29477). The experiment in a line: hemoglobin capture assay, iNOS.
Series [3] concerns the target T2, bovine eNOS (Bos taurus, UniProt P29473). The experiment in a line: hemoglobin capture assay, eNOS.
Description: (§1) The NOS isoforms used were recombinant enzymes overexpressed in E. coli. Rat nNOS [6], bovine eNOS [7], and murine macrophage iNOS [8], and were overexpressed and isolated as reported. The formation of nitric oxide was monitored using a hemoglobin capture assay as described previously. Briefly, a solution of nNOS or eNOS containing 10 µM L-arginine, 1.6 mM CaCl2, 11.6 µg/mL calmodulin, 100 µM DTT, 100 µM NADPH, 6.5 µM H4B, 125 µg/mL oxyhemoglobin, and varying concentrations of inhibitor in 100 mM Hepes (pH 7.4) was monitored at 30 °C. For the determination of inhibition of iNOS, no additional Ca^2+ or calmodulin were added. The assay was initiated by the addition of enzyme, and the absorption of UV light at 400 nm was recorded over one minute. As NO was evolved and coordinated to the hemoglobin, the absorption at 400 nm increased, producing a value for the enzyme velocity under these conditions. A value for the initial rate was obtained when no inhibitor was added (v0). The velocity of the enzyme (v) was then determined in the presence of varying concentrations of inhibitor, until a concentration of inhibitor that reduced the enzyme velocity to half its initial value (v/v0 ~ 0.5) was discovered. Concentrations of inhibitor above and below this value were tested and a graph of v/v0 versus inhibitor concentration ([I]) was plotted. […]
The test system of the next series is neuronal damage. Further details: method as in PMID 19235180. The settings on record: intravenous administration, cerebral palsy rabbit model; cited from earlier work.
Series [4] addresses T2, bovine eNOS. The settings on record: nNOS over eNOS; cited from earlier work.
Series [5] concerns the target T1, rat nNOS. The settings on record: cited from earlier work.

Each structure is given as a SMILES string.

Description for murine iNOS: as §1

With `Nc1nc(CC2CNCC2NCCNCc2ccc(Cl)cc2)cs1` (stereo not shown) [Compound 3], the “pKa of ring nitrogen” value in series [1] is recorded as “≈ 6”. Moreover, the figures for the Ki at rat nNOS [2], on murine iNOS and at bovine eNOS [3] were 10 µM, 50 µM and 1000 µM, respectively.

`Cc1cc(N)nc(C[C@H]2CNC[C@H]2NCCNCc2ccc(Cl)cc2)c1` (relative stereo) [Compound 2]: the “protection against neuronal damage” value in the series with neuronal damage was “significant protection against neuronal damage”.

For the compound `NCCN[C@@H]1CNC[C@@H]1Cc1cccc(N)n1` (relative stereo) [Compound 1], the “selectivity over eNOS” value at bovine eNOS [4] is listed as “more than 1000 fold”. The nNOS inhibitory potency entry at rat nNOS [5] is reported as “nanomolar”.

As a reminder, the Ki is a dissociation constant, usually derived from enzyme kinetics or from competition with a known ligand.
